Measured values published in patent US20240150293A1, “SPIROCYCLOHEXANE DERIVATIVES, PHARMACEUTICAL COMPOSITIONS CONTAINING THEM AND THEIR USES AS ANTI-APOPTOTIC INHIBITORS” (LES LABORATOIRES SERVIER, priority 2021, published 2024).

Each compound was assayed against Mcl-1 protein (UniProtKB Q07820) (Homo sapiens (Human), UniProt Q07820) (assay: Inhibition of Mcl-1 by the fluorescence polarisation assay (Example A, Method A)). Conditions: fluorescence polarization assay.
Format: binding
In short: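 Protein (5 nM) and fluorescein-tagged peptide tracer (1 nM) incubated with 11-point compound series for 2 h at room temperature in HEPES/NaCl/Tween 20 buffer, pH 7.4, 5% DMSO. Displacement read as decrease in polarisation; IC50 fitted by 4-parameter logistic, converted to Ki (cKi or eKi).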

Chain of Mcl-1 protein (Q07820 whole entry): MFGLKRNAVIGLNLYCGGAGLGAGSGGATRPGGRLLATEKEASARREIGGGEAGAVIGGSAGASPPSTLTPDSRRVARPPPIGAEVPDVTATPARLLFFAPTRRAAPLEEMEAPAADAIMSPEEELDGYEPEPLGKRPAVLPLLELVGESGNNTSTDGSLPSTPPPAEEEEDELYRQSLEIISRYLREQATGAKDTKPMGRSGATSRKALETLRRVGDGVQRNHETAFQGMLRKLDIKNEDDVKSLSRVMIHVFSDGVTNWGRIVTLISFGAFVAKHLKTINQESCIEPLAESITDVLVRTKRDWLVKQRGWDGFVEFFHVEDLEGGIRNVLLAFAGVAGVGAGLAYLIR

Ki [µM]	SMILES
0.365	Cc1ccccc1CCOCC1=Cc2ccccc2[C@]12CC[C@@](Nc1cccc(Cl)c1)(C(=O)O)CC2 [Example 415, (1s,4s)-4-(3-chloroanilino)-2′-{[2-(2-methylphenyl)ethoxy]methyl}spiro[cyclohexane-1,1′-indene]-4-carboxylic acid]
0.134	O=C(O)[C@]1(Nc2cccc(Cl)c2)CC[C@@]2(CC1)c1ccccc1CC2CCCCc1ccccc1 (stereo partly shown) [Example 394, (1r,4r)-4-(3-chloroanilino)-2′-(4-phenylbutyl)-2′,3′-dihydrospiro[cyclohexane-1,1′-indene]-4-carboxylic acid]
0.159	O=C(O)C1(Nc2cccc(Cl)c2)CCC2(CC1)c1ccccc1CC2CCCOc1ncnc2c1CCCC2 (stereo not shown) [Example 460, (1r,4r)-4-(3-chloroanilino)-2′-{3-[(5,6,7,8-tetrahydroquinazolin-4-yl)oxy]propyl}-2′,3′-dihydrospiro[cyclohexane-1,1′-indene]-4-carboxylic acid]
0.236	Cc1ccc(C2Cc3ccccc3C23CCC(Nc2cccc(Br)c2)(C(=O)O)CC3)s1 (single isomer, unassigned) [Example 262, 4-(3-bromoanilino)-2′-(5-methylthiophen-2-yl)-2′,3′-dihydrospiro[cyclohexane-1,1′-indene]-4-carboxylic acid]
0.917	O=C(O)[C@]1(Nc2cccc(Cl)c2)CC[C@@]2(CC1)c1ccccc1CC2OCCCc1ccccc1 (stereo partly shown) [Example 400, (1s,4s)-4-(3-chloroanilino)-2′-(3-phenylpropoxy)-2′,3′-dihydrospiro[cyclohexane-1,1′-indene]-4-carboxylic acid]
2.26	O=C(O)C1(Nc2cccc(Br)c2)CCC2(CC1)c1ccccc1CC2c1ccc(Cl)cc1 (stereo not shown) [Example 222, 4-(3-bromoanilino)-2′-(4-chlorophenyl)-2′,3′-dihydrospiro[cyclohexane-1,1′-indene]-4-carboxylic acid]
6.63	O=C(O)[C@]1(Nc2cccc(Cl)c2)CC[C@@]2(CC1)c1ccccc1CC2c1cccc2ccoc12 (single isomer, unassigned) [Example 294, (1r,4r)-2′-(1-benzofuran-7-yl)-4-(3-chloroanilino)-2′,3′-dihydrospiro[cyclohexane-1,1′-indene]-4-carboxylic acid]
1.51	O=C(O)[C@]1(Nc2cccc(Cl)c2)CC[C@]2(CC1)C(c1cccc(OCc3ccccc3)c1)=Cc1ccccc12 [Example 302, (1s,4s)-2′-[3-(benzyloxy)phenyl]-4-(3-chloroanilino)spiro[cyclohexane-1,1′-indene]-4-carboxylic acid]
0.846	O=C(O)[C@]1(Nc2cccc(Cl)c2)CC[C@]2(CC1)C(CCCc1ccc(Cl)cc1)=Cc1ccccc12 [Example 157, (1r,4r)-4-(3-chloroanilino)-2′-[3-(4-chlorophenyl)propyl]spiro[cyclohexane-1,1′-indene]-4-carboxylic acid]
36.7	CC1(C)[C@H]2C=C(C3=Cc4ccccc4[C@]34CC[C@@](Nc3cccc(Cl)c3)(C(=O)O)CC4)[C@]1(C)CC2 [Example 276, (1s,4S)-4-(3-chloroanilino)-2′-[(1R,4R)-1,7,7-trimethylbicyclo[2.2.1]hept-2-en-2-yl]spiro[cyclohexane-1,1′-indene]-4-carboxylic acid]
0.187	CC[C@H](COc1ccncc1)C[C@H]1Cc2ccccc2[C@]12CC[C@@](Nc1cccc(Cl)c1)(C(=O)O)CC2 [Example 542]
3.96	COc1ccc(C)c(C2Cc3ccccc3[C@]23CC[C@@](Nc2cccc(Cl)c2)(C(=O)O)CC3)c1 (single isomer, unassigned) [Example 270, (1r,4r)-4-(3-chloroanilino)-2′-(5-methoxy-2-methylphenyl)-2′,3′-dihydrospiro[cyclohexane-1,1′-indene]-4-carboxylic acid]
1.87	Cc1csc(C2=Cc3ccccc3[C@]23CC[C@@](Nc2cccc(Cl)c2)(C(=O)O)CC3)c1 [Example 316, (1s,4s)-4-(3-chloroanilino)-2′-(4-methylthiophen-2-yl)spiro[cyclohexane-1,1′-indene]-4-carboxylic acid]
0.233	C/C=C/C1=Cc2ccccc2[C@]12CC[C@@](Nc1cccc(Cl)c1)(C(=O)O)CC2 [Example 159, (1r,4r)-4-(3-chloroanilino)-2′-[(1E)-prop-1-en-1-yl]spiro[cyclohexane-1,1′-indene]-4-carboxylic acid]
11.8	CC1(C)CCC=C1C1=Cc2ccccc2[C@]12CC[C@@](Nc1cccc(Cl)c1)(C(=O)O)CC2 [Example 278, (1s,4s)-4-(3-chloroanilino)-2′-(5,5-dimethylcyclopent-1-en-1-yl)spiro[cyclohexane-1,1′-indene]-4-carboxylic acid]
24.1	CC1=Nc2ccccc2[C@]12CC[C@](Nc1cccc(Br)c1)(C(=O)O)CC2 [Example 22, (1r,4r)-4-(3-bromoanilino)-2′-methylspiro[cyclohexane-1,3′-indole]-4-carboxylic acid]

The compounds below were run against Cy5-labelled Mcl1 (amino acids 171-321) C286S protein (UniProtKB Q07820) (Homo sapiens (Human), UniProt Q07820, C286S) (assay: Inhibition of Mcl-1 by the fluorescence quenching assay (Example A, Method B)). Conditions: not given.
Format: binding
Text: Fluorescence quenching assay measures the change fluorescence intensity of C-terminally Cy5-labelled Mcl1 (amino acids 171-321) C286S protein (UniProtKB® primary accession number Q07820) having an amino acid sequence:
which is linked at the C-terminus to the amino acid X which corresponds to a cysteine labelled on the sulfur with sulpho-Cyanine5 from Lumiprobe GmbH catalogue number 13380, upon binding of a C-terminally labelled peptide derived from PUMA (UniProtKB® primary accession number Q9BXH1) having an amino acid sequence:
which is linked at the C-terminus to the amino acid X′, where X′ is cysteine labelled on the sulfur with TQ5WS from AAT Bioquest catalogue number 2079.
The addition of a compound which binds competitively to the same site as the peptide will result in an increase in the fluorescence intensity of the protein due to displacement of the fluorescence quencher.
An 11-point serial dilution of each compound was prepared in DMSO, the final buffer conditions were 10 mM 4-(2-hydroxyethyl)-1-piperazineethanesulfonic acid [HEPES], 150 mM NaCl, 0.05% Tween 20, pH 7.4 and 5% DMSO. The final protein concentration in the assay was 1 nM with the peptide present at 10, 20 or 400 nM. The experiments were incubated for 2 hours at room temperature before fluorescence intensity was measured on a Biotek SynergyNeo plate reader (Excitation 620 nm, emission 680 nm). The dose response curves were plotted with XL-Fit software using a 4-Parameter Logistic Model (Sigmoidal DoseResponse Model) and the inhibitory concentrations that gave a 50% increase in fluorescence intensity was determined (IC50). The Ki values were determined from the IC50 values according to Cer et al, Nucleic Acids Res, 2009, 37 (WebServer issue): W441-W445. Inhibition constants (Ki) are determined from complete binding inhibition curves (cKi) or from estimated from incomplete binding inhibition curves (eKi) in most cases due to low activity.

Chain of Cy5-labelled Mcl1 (amino acids 171-321) C286S protein (Q07820 171-321 C286S): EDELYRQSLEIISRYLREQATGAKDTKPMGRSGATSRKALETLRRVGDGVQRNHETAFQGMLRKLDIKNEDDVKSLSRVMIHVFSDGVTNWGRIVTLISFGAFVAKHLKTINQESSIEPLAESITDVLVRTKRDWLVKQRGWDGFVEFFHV

Ki [µM]	SMILES
0.00601	C[C@@H](COc1ccnc2c1CCCCC2)CC1=Cc2ccccc2[C@]12CC[C@@](Nc1cccc(Cl)c1)(C(=O)O)CC2 [Example 632, (1r,4R)-4-(3-chloroanilino)-2′-{(2R)-2-methyl-3-[(6,7,8,9-tetrahydro-5H-cyclohepta[b]pyridin-4-yl)oxy]propyl}spiro[cyclohexane-1,1′-indene]-4-carboxylic acid]
0.0729	Cc1cc(OCCC[C@@H]2Cc3ccccc3[C@]23CC[C@@](Nc2cccc(Cl)c2)(C(=O)O)CC3)c2cc[nH]c2c1 [Example 487, (1r,2′R,4R)-4-(3-chloroanilino)-2′-{3-[(6-methyl-1H-indol-4-yl)oxy]propyl}-2′,3′-dihydrospiro[cyclohexane-1,1′-indene]-4-carboxylic acid]
0.0556	C[C@@H](COc1ccnc2c1[C@H](C)CCC2)C[C@H]1Cc2cc3c(cc2[C@]12CC[C@@](Nc1cccc(Cl)c1)(C(=O)OCCCS(=O)(=O)O)CC2)OCO3 [Example 953, 3-({(1r,4S,6′S)-4-(3-chloroanilino)-6′-[(2R)-2-methyl-3-{[(5R)-5-methyl-5,6,7,8-tetrahydroquinolin-4-yl]oxy}propyl]-6′,7′-dihydro-2′H-spiro[cyclohexane-1,5′-indeno[5,6-d][1,3]dioxole]-4-carbonyl}oxy)propane-1-sulfonic acid]
0.0426	C[C@@H](COc1ccnc2c1CCC2(C)O)C[C@H]1Cc2ccccc2[C@]12CC[C@@](Nc1cccc(Cl)c1)(C(=O)O)CC2 (stereo partly drawn) [Example 618, (1r,2′S,4S)-4-(3-chloroanilino)-2′-{(2R)-3-[(7-hydroxy-7-methyl-6,7-dihydro-5H-cyclopenta[b]pyridin-4-yl)oxy]-2-methylpropyl}-2′,3′-dihydrospiro[cyclohexane-1,1′-indene]-4-carboxylic acid]

Same assay, conditions: Ki determined from IC50

Ki [µM]	SMILES
1.25	O=C(O)[C@]1(Nc2cccc(Cl)c2)CC[C@]2(CC1)C(CCc1ccccn1)=Cc1ccccc12 [Example 199, (1r,4r)-4-(3-chloroanilino)-2′-[2-(pyridin-2-yl)ethyl]spiro[cyclohexane-1,1′-indene]-4-carboxylic acid]
0.437	N#Cc1cccc(N[C@]2(C(=O)O)CC[C@@]3(CC2)C(Br)=Cc2ccccc23)c1 [Example 82, (1s,4s)-2′-bromo-4-(3-cyanoanilino)spiro[cyclohexane-1,1′-indene]-4-carboxylic acid]
